We go through twelve compounds from US20140235578A1, “METHODS FOR TREATING NEOPLASIA AND FOR IDENTIFYING COMPOSITIONS USEFUL IN SUCH THERAPY” (priority 2007, published 2014).

The IC50 is the concentration needed to halve the response being measured.

The target of data set [1] is purified recombinant human Top2β (Homo sapiens, UniProt Q02880). The data set is described as follows: In vitro DNA cleavage assay (Bodley et al.), Top2β. For Poisoning activity against Top2β: key: each + represent roughly 10-fold in activity; −: non-detectable. The format is biochemical. Conditions: for Poisoning activity against Top2β: DNA cleavage, purified recombinant human Top2β; for activity against Top2β: as stated in Table 2. As to the method:
(§1) Various β-carboline derivatives of compounds of Formula I above were evaluated for their antineoplastic activities and for their ability to preferentially poison Top2 isozymes. These compounds (i.e. those in Table 1 below) were also evaluated for Top2 isozyme-specific poisoning using the in vitro DNA cleavage assay described by Bodley et al. In the studies, purified recombinant human Top2 isozymes were used.
(§2) Reactions were terminated with SDS (final 1%) and digested with proteinase K (100 μg/ml at 50° C. for 1 hr). After adding gel loading solution, the reaction mixtures were analyzed by agarose gel electrophoresis. Gel was dried and exposed to x-ray films for visualization.
(§3) In certain preferred embodiments, the methods for identifying Top2α preferential poisons include using in vitro DNA cleavage assays. In the in vitro DNA cleavage assay, compounds as potential Top2 poisons are tested for their isozyme specificities through this assay using purified recombinant human Top2α (“hTop2α”) and human Top2β (“h Top2β”) isozymes. In this assay, the ability of various Top2 poisons to induce Top2 isozyme-mediated DNA cleavage of ^32P end-labeled linearized plasmid DNA was assessed. Thus, the relative specificity of various Top2 poisons against Top2 isozymes can be qualitatively determined based on the depletion of band intensities and/or the intensities of bands representing the cleavage products.

The next data set has as its system A549 lung carcinoma. The data set is described as follows: Cytotoxicity IC50 against A549 lung carcinoma. The data set is classed as cell-based.
For data set [2], the target named is purified recombinant human Top2α (Homo sapiens, UniProt P11388). The data set is described as follows: In vitro DNA cleavage assay (Bodley et al.), Top2α. The format is biochemical. The conditions noted are these: as stated in Table 2. Here is the method: as §1, §2, §3
The test system of data set [3] is H9C2 cardiomyocytes. Description: γ-H2AX DNA damage signal by Western blotting. The format is cell-based. The conditions noted are these: for effect on doxorubicin-induced γ-H2AX: ROS scavenger 100 μg/ml, added 30 min prior to doxorubicin. Here is the method:
Cell lysates were analyzed by Western blotting using anti-γ-H2AX or anti-α-tubulin antibody (for assessing protein loading). […] Cells were then lysed and analyzed by Western blotting using anti-γ-H2AX or anti-α-tubulin antibody. […] Cells were then lysed and analyzed by Western blotting using anti-γ-H2AX or anti-α-tubulin antibody.
(§4) Vitamin C and NAC were added 30 min prior to doxorubicin. Cell lysates were then analyzed by Western blotting using anti-γ-H2AX or anti-α-tubulin antibody. […] Cell lysates were then analyzed by Western blotting (upper panel) using anti-γ-H2AX or anti-α-tubulin antibody. Quantification of γ-H2AX signals is shown in the lower panel. C, H9C2 cells were treated with 0.1% DMSO (labeled DMSO), bortezomib (1 μM) or MG132 (4 μM) for 30 min, followed by co-treatment with either 0.1% DMSO (labeled control) or 0.5 μM doxorubicin (labeled Doxo) for 1.5 hrs. Neutral comet assay was then performed as described in Materials and Methods. The average comet tail moments were plotted as histograms (mean±SEM). *p-value<0.001, t-test.
On the technique in general: A western blot detects proteins with antibodies after separation by electrophoresis.

The test system of data set [4] is melanomas in the skin of DMBA-initiated TOP2β+ and skin-specific top2β knockout mice. The data set is described as follows: Carcinogenesis assay using a mouse skin model. The format is in vivo. From the text: Skin-specific top2β knockout mice and their TOP2β^+ controls were derived from the top2β^+/flox2 and top2β^flox2/flox2 lines previously reported. The top2β^flox2 allele contains two loxP sites flanking three Top2β exons that encode a region of TopIIβ containing the active-site tyrosyl residue; this allele expresses wild-type TopIIβ, but is converted to a null allele top2β^Δ2 upon exposure to Cre recombinase. Skin-specific deletion within the floxed top2β allele is achieved by crossing the top2β^flox2 lines with mice expressing Cre recombinase from the keratin 14 promoter (kindly provided by Andrew P. McMahon, Harvard University). The K14-Cre transgenic mouse line expresses Cre in the keratinocytes of the epidermis and the hair follicles during prenatal and postnatal development. Mice with the genotype K14-Cre top2β^flox2/flox2, K14-Cre top2β^+/flox2, top2β^flox2/flox2 and top2β^+/flox2 were generated and used in this study; with the exception of K14-Cre top2β^flox2/flox2 mice, which lack TopIIβ in skin cells, all the others are phenotypically Top2β^+ in all tissues.
Seven-week old skin-specific top2β knockout mice and their TOP2β^+ controls were used in the study. The back of each mouse was shaved two days prior to treatment. The tumor initiator DMBA (1 μmol in 100 μl of DMSO) was applied once in the first week, followed by various treatments (two applications per week) for six groups of animals: Group 1, DMSO (100 μl), 5 applications; Group 2, VP-16 (10 μmol in 100 μl DMSO), 5 applications; Group 3, VP-16 (20 μmol in 200 μl of DMSO), 3 applications; Group 4, the tumor promoter TPA (phorbol 12-tetradecanoate 13-acetate, 17 nmol in 100 μl DMSO), 8 applications; Group 5, VP-16 (5 μmol in 100 μl DMSO), 5 application; Group 6, VP-16 (5 μmol in 100 μl DMSO), 10 applications. Mice were examined every week for appearance of melanomas on their skins. The number of melanomas visibly notable was scored at the end of the 16th week. The average numbers of tumors induced in different treatment groups were compared using Student's t-test.

The test system of data set [5] is control-shRNA-PC12 and Top2β-shRNA-PC12 cells. The data set is described as follows: 4-day MTT assay in PC12 knockdown cells. The format is cell-based, rat. As to the method: (§5) Primary MEFs were isolated from E13.5 Top2β^+/+, Top2β^+/Δ2 and Top2β^Δ2/Δ2 mouse embryos, as described (the Top2β^Δ2 allele contains a deletion in the coding region of the active-site tyrosyl residue). SV40-transformed MEFs were obtained by transformation with pAN2 DNA as described. Cells were maintained in DMEM supplemented with 10% FetalPlex animal serum complex (Gemini Bio-Products), L-glutamine (2 mM), penicillin (100 units/ml), and streptomycin (100 μg/ml) in a 37° C. incubator with 5% CO2. PC12 cells were first clonally selected and then used to generate Top2β-shRNA and control-shRNA knockdown cells. A rat Top2β-shRNA sequence (5′-[…]-3′) was generated based on the 643-bp partial rat TopIki cDNA sequence (GenBank™ accession number D14046). Duplex (5′-[…]-3′) DNA was made and cloned into the LentiLox 3.7 vector (obtained from Dr. van Parijs, MIT). The control-shRNA sequence (5′-[…]-3′) was created by altering three nucleotides in the rat Top2β-shRNA sequence (underlined). The duplex (5′-[…]-3′) DNA was cloned into the LentiLox 3.7 vector. […]
(§6) Top2β contributes minimally to VP-16 cytotoxicity in transformed cells. […] To test if Top2β is also important for VP-16 cytotoxicity, we determined the IC50 of VP-16 in two pairs of transformed Top2β knockout/knockdown cells using 4-day MTT assay (in triplicates). […]

Data set [6] deals with Top2β+/− and Top2β−/− MEFs. The data set is described as follows: 4-day MTT assay in transformed MEFs. The data set is classed as cell-based, mouse. Conditions: triplicates. As to the method: as §5, §6
Data set [7] deals with H9C2 cardiomyocytes. The format is cell-based. Conditions: bortezomib 1 μM or MG132 4 μM co-treatment, 0.5 μM doxorubicin, p<0.001. Here is the method: as §4
The amount of Top2 cleavage complexes was measured by a band depletion assay as described in Materials and Methods. Cells were lysed either immediately or after reversal of the Top2 cleavage complexes (labeled R+250). Cell lysates were analyzed by Western blotting using anti-Top2α/Top2β or anti-α-tubulin antibody. […] Cells were then lysed and protein levels of Top2α, and Top2β isozymes were determined by Western blotting. […] Cell lysates were immunoblotted using anti-Top2β antibody. D, H9C2 cells were treated with ICRF187 (100 μM) for 4 hrs, followed by treatment with doxorubicin (Doxo, 0, 0.5 and 1 μM) for 1.5 hrs. […]

In the next data set the test system is Top2β. The data set is described as follows: Top2β protein level by Western blotting in H9C2 cells. The data set is classed as cell-based. The conditions noted are these: 1 μM co-treatment. Here is the method: The amount of Top2 cleavage complexes was measured by a band depletion assay as described in Materials and Methods. Cells were lysed either immediately or after reversal of the Top2 cleavage complexes (labeled R+250). Cell lysates were analyzed by Western blotting using anti-Top2α/Top2β or anti-α-tubulin antibody. […] Cells were then lysed and protein levels of Top2α, and Top2β isozymes were determined by Western blotting. […] Cell lysates were immunoblotted using anti-Top2β antibody. D, H9C2 cells were treated with ICRF187 (100 μM) for 4 hrs, followed by treatment with doxorubicin (Doxo, 0, 0.5 and 1 μM) for 1.5 hrs. Neutral comet assay was then performed as described in Materials and Methods. The average comet tail moments were plotted as histograms (mean±SEM). * p-value<0.001, t-test.

purified recombinant human Top2α, sequence (P11388 whole entry): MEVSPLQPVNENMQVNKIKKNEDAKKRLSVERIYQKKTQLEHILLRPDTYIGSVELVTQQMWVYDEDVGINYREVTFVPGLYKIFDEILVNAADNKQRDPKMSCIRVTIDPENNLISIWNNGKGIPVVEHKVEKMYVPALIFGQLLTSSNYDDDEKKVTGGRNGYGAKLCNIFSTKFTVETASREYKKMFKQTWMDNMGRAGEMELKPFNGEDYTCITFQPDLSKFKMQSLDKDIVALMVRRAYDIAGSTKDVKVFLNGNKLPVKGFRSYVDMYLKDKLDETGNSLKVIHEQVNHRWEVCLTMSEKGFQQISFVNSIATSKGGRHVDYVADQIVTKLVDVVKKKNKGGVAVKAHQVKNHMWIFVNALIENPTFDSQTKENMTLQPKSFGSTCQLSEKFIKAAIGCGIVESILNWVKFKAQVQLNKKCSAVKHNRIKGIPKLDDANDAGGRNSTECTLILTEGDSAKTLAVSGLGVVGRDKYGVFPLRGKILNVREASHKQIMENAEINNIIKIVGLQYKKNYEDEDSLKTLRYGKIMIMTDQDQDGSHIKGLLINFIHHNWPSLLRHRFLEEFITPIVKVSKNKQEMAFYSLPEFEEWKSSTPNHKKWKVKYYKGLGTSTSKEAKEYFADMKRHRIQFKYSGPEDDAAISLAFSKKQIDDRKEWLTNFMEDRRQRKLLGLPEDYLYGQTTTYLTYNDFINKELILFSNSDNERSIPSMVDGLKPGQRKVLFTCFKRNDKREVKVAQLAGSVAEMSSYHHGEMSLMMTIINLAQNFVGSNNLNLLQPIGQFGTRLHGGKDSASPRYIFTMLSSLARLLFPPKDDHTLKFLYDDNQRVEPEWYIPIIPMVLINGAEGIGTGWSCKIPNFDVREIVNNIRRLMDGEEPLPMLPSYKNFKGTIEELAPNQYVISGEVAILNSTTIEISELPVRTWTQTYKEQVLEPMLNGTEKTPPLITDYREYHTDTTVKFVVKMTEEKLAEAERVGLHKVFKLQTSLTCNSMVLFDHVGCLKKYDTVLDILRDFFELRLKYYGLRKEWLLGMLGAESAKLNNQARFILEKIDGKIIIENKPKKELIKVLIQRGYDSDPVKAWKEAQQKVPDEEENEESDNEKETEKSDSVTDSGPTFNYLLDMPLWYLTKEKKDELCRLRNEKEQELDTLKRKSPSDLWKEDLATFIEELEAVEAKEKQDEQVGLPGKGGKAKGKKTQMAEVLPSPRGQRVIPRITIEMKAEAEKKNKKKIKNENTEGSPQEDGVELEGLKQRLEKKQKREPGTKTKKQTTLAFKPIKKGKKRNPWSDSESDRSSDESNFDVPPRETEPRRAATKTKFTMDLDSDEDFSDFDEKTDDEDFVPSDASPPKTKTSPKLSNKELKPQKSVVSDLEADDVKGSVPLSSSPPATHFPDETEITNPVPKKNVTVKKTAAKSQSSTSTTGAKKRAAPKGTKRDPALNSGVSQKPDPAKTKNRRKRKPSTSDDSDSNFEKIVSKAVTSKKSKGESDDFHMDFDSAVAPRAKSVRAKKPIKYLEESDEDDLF
purified recombinant human Top2β, sequence (Q02880 whole entry): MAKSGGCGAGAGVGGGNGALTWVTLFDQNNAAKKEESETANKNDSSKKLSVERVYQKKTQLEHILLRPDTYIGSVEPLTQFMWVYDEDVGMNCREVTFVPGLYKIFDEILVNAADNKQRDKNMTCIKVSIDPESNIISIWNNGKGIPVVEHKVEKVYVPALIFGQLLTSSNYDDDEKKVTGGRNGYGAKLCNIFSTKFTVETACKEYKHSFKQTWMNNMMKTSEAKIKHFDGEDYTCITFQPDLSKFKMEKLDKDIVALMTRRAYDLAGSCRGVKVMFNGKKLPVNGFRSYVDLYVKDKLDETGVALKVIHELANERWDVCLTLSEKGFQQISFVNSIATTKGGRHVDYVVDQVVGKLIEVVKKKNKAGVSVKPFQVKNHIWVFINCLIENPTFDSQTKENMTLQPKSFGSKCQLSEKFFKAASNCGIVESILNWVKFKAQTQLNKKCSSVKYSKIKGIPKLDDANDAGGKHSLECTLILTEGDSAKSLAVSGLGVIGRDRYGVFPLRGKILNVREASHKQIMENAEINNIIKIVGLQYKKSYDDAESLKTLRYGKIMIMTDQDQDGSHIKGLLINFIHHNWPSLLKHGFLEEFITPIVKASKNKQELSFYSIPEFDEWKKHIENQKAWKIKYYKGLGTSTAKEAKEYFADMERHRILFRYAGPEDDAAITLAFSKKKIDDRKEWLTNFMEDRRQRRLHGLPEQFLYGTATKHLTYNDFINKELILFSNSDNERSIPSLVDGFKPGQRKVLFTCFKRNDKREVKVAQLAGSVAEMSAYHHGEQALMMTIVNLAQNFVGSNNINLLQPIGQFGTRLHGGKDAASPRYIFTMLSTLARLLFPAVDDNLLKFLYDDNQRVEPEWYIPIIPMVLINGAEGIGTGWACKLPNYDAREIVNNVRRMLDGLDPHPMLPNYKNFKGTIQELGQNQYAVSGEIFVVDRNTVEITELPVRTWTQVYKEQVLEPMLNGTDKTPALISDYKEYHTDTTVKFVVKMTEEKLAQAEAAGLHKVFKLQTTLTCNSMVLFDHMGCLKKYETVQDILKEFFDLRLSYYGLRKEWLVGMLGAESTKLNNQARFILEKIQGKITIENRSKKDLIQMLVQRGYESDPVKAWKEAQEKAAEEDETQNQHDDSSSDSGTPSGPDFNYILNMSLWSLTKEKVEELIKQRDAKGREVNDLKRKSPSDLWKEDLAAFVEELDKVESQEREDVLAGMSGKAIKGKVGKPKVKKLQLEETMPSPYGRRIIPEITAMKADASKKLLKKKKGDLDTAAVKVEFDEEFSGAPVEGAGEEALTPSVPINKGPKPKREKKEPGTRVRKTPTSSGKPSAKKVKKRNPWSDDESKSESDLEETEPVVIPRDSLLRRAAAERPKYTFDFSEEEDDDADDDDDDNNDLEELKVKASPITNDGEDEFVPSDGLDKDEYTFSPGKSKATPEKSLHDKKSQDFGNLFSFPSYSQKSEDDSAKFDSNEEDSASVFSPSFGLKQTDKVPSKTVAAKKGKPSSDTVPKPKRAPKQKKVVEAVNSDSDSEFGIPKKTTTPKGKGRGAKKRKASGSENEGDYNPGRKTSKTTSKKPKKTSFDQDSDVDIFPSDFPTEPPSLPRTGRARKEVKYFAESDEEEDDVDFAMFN

On to “1,2-dibenzyl-9-fluorobenzyl-9H-pyrido[3,4-b]indol-2-ium [compound 9]”, for which, in data set [1], the “Poisoning activity against Top2β” value was “−” and the “activity against Top2β” value is on record as “non-detectable”. In the data set with A549 lung carcinoma, this compound came in with an IC50 of 4200 nM. For the same compound, the “activity against Top2α” value in data set [2] is given as “roughly 20 fold”.

On to “2,9-dibenzyl-1-chlorophenyl-9H-pyrido[3,4-b]indol-2-ium [compound 8]”, for which, in data set [1], the “Poisoning activity against Top2β” value was “−” and the “activity against Top2β” value is given as “non-detectable”. The compound further registered an IC50 in the data set with A549 lung carcinoma of 6100 nM. For the same compound, the “activity against Top2α” value in [2] is given as “roughly 20 fold”.

Regarding “9-butyl-1-chlorobenzyl-2-(3-phenylpropyl)-9H-pyrido[3,4-b]indol-2-ium [compound 10]”, in [1], the “Poisoning activity against Top2β” value is reported as “+” and the “activity against Top2β” value is recorded as 10 fold. Moreover, in the data set with A549 lung carcinoma, the half-maximal inhibitory concentration (IC50) was below 1700 nM. Besides, the “activity against Top2α” value in data set [2] was “roughly 20 fold”.

Consider `COc1cccc2c1C(=O)c1c(O)c3c(c(O)c1C2=O)C[C@@](O)(C(=O)CO)C[C@@H]3O[C@H]1C[C@H](N)[C@H](O)[C@H](C)O1` [Doxorubicin, doxorubicin], for which the “induction of γ-H2AX” value in the data set on H9C2 cardiomyocytes [3] (0.1-10 μM, 1 hr) is “concentration-dependent up to 1 μM”.

On to `CC(=O)N[C@@H](CS)C(=O)O` [N-Acetyl Cysteine], for which the “effect on doxorubicin-induced γ-H2AX” value in the data set on H9C2 cardiomyocytes [3] is on record as “unaffected”.

With `CCCCCCCCCCCCCC(=O)O[C@@H]1[C@@H](C)[C@@]2(O)[C@@H](C=C(CO)C[C@]3(O)C(=O)C(C)=C[C@@H]23)[C@@H]2C(C)(C)[C@]12OC(C)=O` [TPA, phorbol 12-tetradecanoate 13-acetate], the “ratio of average number of melanomas per mouse, Top2β+ versus Top2β− mice” value in data set [4] (Group 4, TPA treatment) stood at 1.3. Further, the “increase in the average number of melanomas per mouse versus DMSO” value in data set [4] (TOP2β+ mice, Group 4, 17 nmol × 8 applications) came out at 130%. Besides, in data set [4] (TOP2β− mice, Group 4, 17 nmol × 8 applications), the “increase in skin melanoma versus DMSO” value is 150%.

`COc1cc([C@@H]2c3cc4c(cc3[C@@H](O[C@@H]3O[C@@H]5CO[C@@H](C)O[C@H]5[C@H](O)[C@H]3O)[C@H]3COC(=O)[C@H]23)OCO4)cc(OC)c1O` [VP16, etoposide]: the IC50 was found to be 1600 ± 100 nM in [5] (Top2β-shRNA-PC12 cells), 1900 ± 100 nM in data set [5] (control-shRNA-PC12 cells), 38 ± 7 nM in data set [6] (Top2β+/− MEFs) and 40 ± 6 nM in [6] (Top2β−/− MEFs). For the same compound, the “more melanomas in TOP2β+ mice than in skin-specific Top2β knockout mice” value in data set [4] (mouse, in vivo) is reported as 2-13 fold.

For the compound `CC(C)C[C@H](NC(=O)[C@H](Cc1ccccc1)NC(=O)c1cnccn1)B(O)O` [bortezomib], the “effect on doxorubicin-induced comet tail moment” value in the data set with H9C2 cardiomyocytes [7] is recorded as “significantly reduced”. Also, in the data set with Top2β, the “effect on dexrazoxane-induced degradation of Top2β” value is given as “abolished”.

For `CCCCOc1ccc2c3cc[n+](Cc4ccccc4)c(C)c3n(CC(C)C)c2c1` [compound 3, 2-benzyl-7-butoxy-9-isobutyl-1-methyl-9H-pyrido[3,4-b]indol-2-ium], in data set [1], the “Poisoning activity against Top2β” value is given as “−” and the “activity against Top2β” value is “non-detectable”. In the data set with A549 lung carcinoma, the IC50 was 4600 nM. Moreover, the “activity against Top2α” value in [2] is given as “roughly 20 fold”.

Turning to `Cc1c2c(cc[n+]1Cc1ccccc1)c1ccc(OCC(C)C)cc1n2CC(C)C` [compound 4, 2-benzyl-7-isobutoxy-9-isobutyl-1-methyl-9H-pyrido[3,4-b]indol-2-ium], in data set [1], the “Poisoning activity against Top2β” value was “−” and the “activity against Top2β” value is on record as “non-detectable”. In the data set on A549 lung carcinoma, the IC50 is 5300 nM. In addition, the “activity against Top2α” value in [2] is on record as “roughly 20 fold”.

On to `O=C1O[C@H]([C@@H](O)CO)C(O)=C1O` [vitamin C], for which, in the data set on H9C2 cardiomyocytes [3], the “effect on doxorubicin-induced γ-H2AX” value is listed as “unaffected”.

In the case of ICRF-193, the “effect on doxorubicin (0.5 μM)- and VP-16 (10 μM)-induced γ-H2AX” value in the data set with H9C2 cardiomyocytes [3] is listed as “abolished”.
